Data taken from the Biogen ADME set (Fang et al. 2023).
In brackets after ≈: the same amount, converted by molar mass.

Details: for aqueous solubility: pH 6.8

Compound | MDR1-MDCK efflux ratio | intrinsic clearance, human liver microsomes [mL/min/kg] | intrinsic clearance, rat liver microsomes [mL/min/kg] | aqueous solubility [µg/mL]
CN(C)c1ccnc2sc3c(=O)n(N4CCCCCC4)cnc3c12 | 3.06 | 8.59 | 90.9 | –
Cn1ccc2c(C(=O)Nc3ncn(Cc4cccnc4)n3)cccc21 | 54.9 | ≤ 4.74 | 30.9 | 42.5 (≈ 128 µM)
Cc1nc(N2CCn3ccnc3C2)c2cnn(C)c2n1 | 3.63 | 10.5 | ≤ 10.7 | 32.9 (≈ 122 µM)
N#Cc1cccc(-c2ccc3[nH]ccc3c2)n1 | 0.528 | 299 | 657 | 3.65 (≈ 16.6 µM)
CN(CC1CCC1)C(=O)C1CCN(c2ccc3nncn3n2)CC1 | 11.6 | 7.72 | 126 | –
O=C(Nc1nc2ccccc2[nH]1)c1ccc(-c2ccccc2)cc1 | – | – | – | 0.5 (≈ 1.6 µM)
Cc1csc(N(C(=O)c2ccc(-n3cncn3)c(F)c2)C2CC2)n1 | 0.63 | 16.5 | 215 | 53.3 (≈ 155 µM)
O=C(Nc1cccc2ncccc12)[C@H]1CCCN(S(=O)(=O)c2ccc(F)cc2)C1 | – | 35.2 | 698 | –
CC(C)COc1cc(F)cc(-c2cncc(C(=O)N3CCCC3)n2)c1 | 0.442 | – | – | 0.7 (≈ 2.04 µM)
COc1ccc(NS(=O)(=O)c2ccc3c(c2)n(C)c(=O)n3C)cc1 | – | – | – | 2.05 (≈ 5.9 µM)
CC(C)(O)[C@H]1O[C@H]2CC[C@@]3(C)[C@@](O)(CC[C@H]4Cc5c([nH]c6ccccc56)[C@@]43C)C2=CC1=O | – | – | – | 0.99 (≈ 2.27 µM)
COC(=O)[C@@H]1C[C@H](O)CN1CCc1ccccc1F | 0.726 | – | 3370 | 56.8 (≈ 212 µM)
Cn1cc(C(=O)NCCc2c[nH]c3ccccc23)c(-c2cccnc2)n1 | 29 | 36.2 | 415 | 56.2 (≈ 163 µM)
Cc1nc(-c2ccccc2)ccc1C(=O)NC1CCCC1 | – | ≤ 4.74 | 319 | 41 (≈ 146 µM)
Cc1ccc(-c2ccc3c(ccc4sc5c(c43)NC[C@@H](C)NC5=O)n2)cn1 | 5.49 | – | – | 0.2 (≈ 0.534 µM)
CCN1CCN(S(=O)(=O)c2c[nH]c(C(C)C)n2)c2ccccc21 | 20.2 | 258 | 248 | –
COc1ccc2c(-c3ccccc3)cc3nnnn3c2c1 | 0.48 | – | – | 0.15 (≈ 0.543 µM)
O=C(/C=C\n1cnc(-c2cc(C(F)(F)F)cc(C(F)(F)F)c2)n1)NNc1cnccn1 | 1.96 | 4.77 | 14.3 | 12.5 (≈ 28.1 µM)
COc1cc(-c2cn(C3CCc4c(F)cccc4N(CC(F)(F)F)C3=O)nn2)ccc1-n1cnc(C)c1 (stereo unspecified) | – | 26.1 | 49.2 | –
CN1CCN(c2cccc(C#N)n2)CC1 | – | ≤ 4.74 | 617 | –
CCCn1cc(C(=O)N2CCC(c3n[nH]cc3C(=O)N3CCOCC3)CC2)cn1 | 15.3 | ≤ 4.74 | 11.4 | 54.1 (≈ 135 µM)
O=C(c1ccc2c(c1)CCCC2)N1CCOCC1c1ccn[nH]1 (stereo unspecified) | 4.04 | – | – | –
Cc1c(Cl)cccc1NC(=O)C(C)N1CCCN(c2nccs2)CC1 (stereo unspecified) | 0.958 | 928 | 4390 | 48.2 (≈ 127 µM)
Cc1nnc(N2CCCSCC2)c(C#N)c1C | 0.646 | 35.7 | 1530 | 23.6 (≈ 95.1 µM)

The next lines start with the values.

MDR1-MDCK efflux ratio | intrinsic clearance, human liver microsomes [mL/min/kg] | intrinsic clearance, rat liver microsomes [mL/min/kg] | aqueous solubility [µg/mL] | Compound
2.29 | 70.4 | 1100 | 24.9 (≈ 77.1 µM) | COCc1cc(-c2nc(CCc3ccccc3)n[nH]2)ccc1OC
– | ≤ 4.74 | 479 | – | Cc1ccc(C(=O)N(C)Cc2ccccn2)c(O)c1
31.2 | ≤ 4.74 | ≤ 10.7 | – | CCN(CCO)Cc1nc2cc(OC)c(OC)cc2c(=O)[nH]1
1.94 | 94.2 | 655 | 47.5 (≈ 152 µM) | Cc1nc(N2CCc3c(ncn3C)C2)c2c(C)c(C)sc2n1
0.473 | 219 | 1550 | – | CCc1ccc(CC)c(C(=O)CSc2nncs2)c1
1.52 | 19.1 | 1760 | 40.6 (≈ 152 µM) | Cc1ccccc1OCCn1c(N)nc2ccccc21
– | 27.6 | 1270 | 31.6 (≈ 135 µM) | Cc1ccc(CN(C)Cc2c(C)noc2C)o1
2.25 | 7.54 | 89.6 | 44.8 (≈ 160 µM) | Cn1c(CNC(=O)Cc2ccccc2)nc2ccccc21
0.738 | – | – | 0.77 (≈ 2.24 µM) | Cc1cc(C)c(NC(=O)Cn2nnn(-c3cccs3)c2=O)c(C)c1
1.35 | ≤ 4.74 | 19.7 | – | Cc1cc(C(=O)NC(C)(C)C#N)nn1-c1ccc(F)cc1
1.03 | 30.9 | 631 | 48 (≈ 171 µM) | CC(C)CNc1nnc(SCc2ccncc2)s1
0.457 | 12.7 | 186 | 29 (≈ 90.4 µM) | Cc1cc(NC(=O)C2CCN(c3ccncc3Cl)CC2)no1
0.867 | 26.4 | 299 | – | CCC(=O)NCC[C@@H]1CCc2ccc3c(c21)CCO3
0.658 | 15.1 | 2320 | – | CCN(C)S(=O)(=O)N(C)Cc1cnc2ccccc2c1
0.674 | – | – | 49 (≈ 242 µM) | Oc1ccc(-c2noc(C3CC3)n2)cc1
1.26 | ≤ 4.74 | 20.3 | 17.1 (≈ 64.9 µM) | Cc1cc(-c2nnc3ccc4ccccc4n23)n(C)n1
1.76 | ≤ 4.74 | 50.1 | – | CN1CCC(CNC(=O)c2ncoc2-c2ccc(F)cc2)CC1
0.986 | – | – | 0.26 (≈ 0.727 µM) | Cc1sc2ncnc(OCC(=O)Nc3ccc4c(c3)OCO4)c2c1C
8.46 | ≤ 4.74 | 30.7 | – | Cc1cc(C)c2c(C(=O)N3CC4(CNC(=O)N4)C3)cc(C)nc2c1
0.649 | ≤ 4.74 | ≤ 10.7 | 54.6 (≈ 232 µM) | COc1ccccc1-c1nc(C(=O)O)cs1
